In ChEMBL document CHEMBL1125712 (J Med Chem, 1991):
pIC50: −log10 of the molar value. Active and inactive are the calls of the source. The calls are words filed in the database; no cut-off is given here.

Tests used:
[1] = target: Aldo-keto reductase family 1 member B1 (Homo sapiens, UniProt P15121); assay: Inhibition of aldose reductase (aldo-keto reductase, AKR1B1) isolated from human placenta.
[2] = test system: aldose reductase (Rattus norvegicus); assay: In vivo inhibition of sorbitol accumulation in the rat following 10 mg/kg p.o. administration.; conditions: at 10 mg/kg
Rattus norvegicus = species on record: Rattus norvegicus; conditions: at 25 mg/kg
[3] = test system: aldose reductase (Rattus norvegicus); assay: In vivo inhibition of sorbitol accumulation in the rat following 10 mg/kg p.o. administration; Not significant.; conditions: at 10 mg/kg

SMILES	pIC50 [1]	inhibition [2] [%]	inhibition (Rattus norvegicus)	inhibition [3]
O=C(O)Cc1nn(Cc2nc3c(ccc4ccccc43)s2)c(=O)c2ccc(Cl)cc12 [listing 1 of 2 here]	6.52			
CC(C)c1ccc2nc(Cn3nc(CC(=O)O)c4ccccc4c3=O)sc2c1	5.49			
O=C(O)Cc1nn(Cc2nc3cc(Cl)ccc3s2)c(=O)c2ccccc12	8.15	73		
COc1ccc2sc(Cn3nc(CC(=O)O)c4ccccc4c3=O)nc2c1	6.64		inactive	
CS(=O)(=O)c1ccc2sc(Cn3nc(CC(=O)O)c4ccccc4c3=O)nc2c1	5.77			inactive
COc1cc(OC)c2sc(Cn3nc(CC(=O)O)c4ccccc4c3=O)nc2c1	6.15			
O=C1NC(=O)C2(CN(Cc3ccc(F)cc3)c3ccc(F)cc32)N1 (stereo not given)	6.85			
COc1cc2nc(Cn3nc(CC(=O)O)c4ccccc4c3=O)sc2cc1F	5.64		inactive	
CN1C(C(=O)Nc2nc3ccccc3s2)=C(O)c2ccccc2S1(=O)=O	5.26			
O=C1NC(=O)C2(CN(Cc3nc4ccccc4s3)c3ccc(Cl)cc32)N1 (stereo not given)	7.43			
COc1ccc2c(CC(=O)O)nn(Cc3nc4ccccc4s3)c(=O)c2c1	7.59			inactive
O=C(O)Cc1nn(Cc2nc3ccc(O)cc3s2)c(=O)c2ccccc12	6.00			
O=C(O)Cc1nn(Cc2ccc(Br)cc2F)c(=O)c2ccccc12 [PONALRESTAT]	7.68			
O=C(O)Cc1nn(Cc2nc3ccc(C(F)(F)F)cc3s2)c(=O)c2ccccc12	7.15	65		
O=C(O)Cc1nn(Cc2nc3c(F)cccc3s2)c(=O)c2ccccc12	8.70			inactive
Cc1ccc2sc(Cn3nc(CC(=O)O)c4ccccc4c3=O)nc2c1	7.59		inactive	
O=C(O)Cc1nn(Cc2nc3ccccc3s2)c(=O)c2cc(C(F)(F)F)ccc12	7.92			inactive
O=C(O)Cc1nn(-c2nc3ccccc3s2)c(=O)c2ccccc12	< 6.00			
O=C(O)Cc1nn(Cc2nc3ccccc3s2)c(=O)c2ccc(Cl)cc12	7.47			
O=C(O)Cc1nn(Cc2nc3cccc(Cl)c3s2)c(=O)c2ccccc12	9.00	52		
O=C(O)Cc1nn(Cc2nc3ccccc3s2)c(=O)c2ccc(C(F)(F)F)cc12	7.74			inactive
O=C(O)Cc1nn(Cc2nc3c(C(F)(F)F)cccc3s2)c(=O)c2ccccc12	7.60	61		
O=C(O)Cc1nn(Cc2nc3c(Cl)cc(Cl)cc3s2)c(=O)c2ccccc12	6.77			

SMILES	pIC50 [1]	inhibition [2] [%]	inhibition (Rattus norvegicus)	inhibition [3]
O=C(O)Cc1nn(Cc2nc3ccc(Br)cc3s2)c(=O)c2ccccc12	7.59			
O=C(O)Cc1nn(Cc2nc3cc(C(F)(F)F)cc(C(F)(F)F)c3s2)c(=O)c2ccccc12	5.85			inactive
O=C(O)Cc1nn(Cc2nc3ccccc3s2)c(=O)c2cc(Cl)ccc12	7.82			
O=C(O)Cc1nn(Cc2nc3c(O)cccc3s2)c(=O)c2ccccc12	7.00		inactive	
O=C(O)Cc1nn(Cc2nc3c(ccc4ccccc43)s2)c(=O)c2ccc(Cl)cc12 [listing 2 of 2 here]	6.46			
Cc1cccc2c(CC(=O)O)nn(Cc3nc4c(ccc5ccccc54)s3)c(=O)c12	7.38			inactive
Cc1cccc2c(CC(=O)O)nn(Cc3nc4ccccc4s3)c(=O)c12	6.38			inactive
O=C(O)Cc1nn(CCc2nc3cc(C(F)(F)F)ccc3s2)c(=O)c2ccccc12	6.34			
O=C(O)Cc1nn(Cc2nc3cc(F)cc(Cl)c3s2)c(=O)c2ccccc12	8.21	58		
O=C(O)Cc1nn(Cc2nc3cc(Cl)cc(C(F)(F)F)c3s2)c(=O)c2ccccc12	6.21			
Cc1ccc2c(=O)n(Cc3nc4ccccc4s3)nc(CC(=O)O)c2c1	7.57			
O=C(O)Cc1nn(Cc2nc3c(Cl)cccc3s2)c(=O)c2ccccc12	8.46	63		
O=C(O)Cc1nn(Cc2nc3cc(C(F)(F)F)cc(F)c3s2)c(=O)c2ccccc12	7.77			
O=C(O)Cc1nn(Cc2nc3c(F)ccc(F)c3s2)c(=O)c2ccccc12	8.30	73		
O=C(O)Cc1nn(CSc2nc3ccccc3s2)c(=O)c2ccccc12	7.09			
O=C(O)Cc1nn(Cc2nc3cccc(C(F)(F)F)c3s2)c(=O)c2ccccc12	8.00	80		
CC(c1nc2cc(Cl)ccc2s1)n1nc(CC(=O)O)c2ccccc2c1=O (stereo not given)	7.59	53		
O=C(O)Cc1nn(Cc2nc3ccccc3s2)c(=O)c2ccc(Br)cc12	7.92			
COc1cc(C(F)(F)F)c2sc(Cn3nc(CC(=O)O)c4ccccc4c3=O)nc2c1	6.18			
O=C(O)Cc1nn(Cc2ccc(-c3nc4ccccc4s3)cc2)c(=O)c2ccccc12	< 6.00			
O=C(O)Cc1nn(Cc2nc3cc(Cl)c(F)cc3s2)c(=O)c2ccccc12	6.96			
O=C(O)Cc1nn(Cc2nc3ccccc3s2)c(=O)c2cc(Br)ccc12	6.16	42		
O=C(O)Cc1nn(Cc2nc3ccccc3s2)c(=O)c2c(F)cccc12	7.52			

SMILES	pIC50 [1]	inhibition [2] [%]	inhibition (Rattus norvegicus)	inhibition [3]
COc1cc2sc(Cn3nc(CC(=O)O)c4ccccc4c3=O)nc2cc1C(F)(F)F	5.37			
COc1ccc2nc(Cn3nc(CC(=O)O)c4ccccc4c3=O)sc2c1	5.38			
O=C(O)Cc1nn(Cc2nc3ccccc3s2)c(=O)c2cc([N+](=O)[O-])ccc12	7.48			
O=C(O)Cc1nn(Cc2nc3cc(C(F)(F)F)cc(Cl)c3s2)c(=O)c2ccccc12	7.03	26		
O=C(O)Cc1nn(Cc2nc3cc(O)ccc3s2)c(=O)c2ccccc12	7.39			
O=C(O)Cc1nn(Cc2cccc(-c3nc4ccccc4s3)c2)c(=O)c2ccccc12	5.24			
O=C(O)Cc1nn(Cc2nc3ccccc3s2)c(=O)c2cc(Cl)c(Cl)cc12	8.00			
O=C(O)Cc1nn(Cc2nc3ccc(Br)cc3s2)c(=O)c2cc(Cl)c(Cl)cc12	5.74			
O=C(O)Cc1nn(Cc2nc3cc(F)cc(C(F)(F)F)c3s2)c(=O)c2ccccc12	7.00			inactive
COc1ccc2c(=O)n(Cc3nc4ccccc4s3)nc(CC(=O)O)c2c1	7.55			
O=C(O)Cc1nn(Cc2nc3cc(Cl)cc(F)c3s2)c(=O)c2ccccc12	8.30	63		
CC(C)c1ccc2c(=O)n(Cc3nc4ccccc4s3)nc(CC(=O)O)c2c1	6.96			
CC(c1nc2cc(C(F)(F)F)ccc2s1)n1nc(CC(=O)O)c2ccccc2c1=O (stereo not given)	7.43			
CSc1ccc2sc(Cn3nc(CC(=O)O)c4ccccc4c3=O)nc2c1	7.22			
O=C(O)Cc1nn(Cc2nc3c(F)c(F)ccc3s2)c(=O)c2ccccc12	8.00	82		
O=C(O)Cc1nn(Cc2nc3cccc(Br)c3s2)c(=O)c2ccccc12	7.82	71		
O=C(O)Cc1nn(Cc2nc3cc(O)cc(O)c3s2)c(=O)c2ccccc12	7.06			
Cc1ccc2nc(Cn3nc(CC(=O)O)c4ccccc4c3=O)sc2c1F	6.49			
O=C(O)Cc1nn(Cc2nc3ccccc3s2)c(=O)c2ccc([N+](=O)[O-])cc12	7.34			inactive
C[S+]([O-])c1ccc2sc(Cn3nc(CC(=O)O)c4ccccc4c3=O)nc2c1 (stereo not given)	5.37			
O=C(O)Cc1nn(Cc2nc3c(Cl)c(Cl)ccc3s2)c(=O)c2ccccc12	7.00			
